# What was measured:
# [1] = system: SOX9 mRNA in ATDC5; assay: Cartilage differentiation-related gene expression in chondrogenic cells: SOX9 (Test Example 7); assay type: cell-based, mouse; settings: 500 μM, insulin 0.1 μg/mL, 3 days, normalized to GAPDH, FIG. 20
# Protocol: (§1) The mouse chondrogenic cell line ATDC5 (RIKEN BRC No. RCB0565) was cultured until subconfluence at 37° C. in an atmosphere of 5 vol % CO2 and 95 vol % air in DMEM/F-12 medium supplemented with 5% (w/w) FBS, 1% (w/w) penicillin-streptomycin solution, 5 μg/mL transferrin, and 3×10^−8 M sodium selenite. The cells were collected by trypsin treatment. The collected cells were suspended in fresh DMEM/F-12 medium with the same supplements as above to give a cell suspension (10×10^4 cells/mL). The cell suspension was seeded at a volume of 500 μL in each well of a 24-well plate, and the cells were precultured at 37° C. in an atmosphere of 5 vol % CO2 and 95 vol % air for 2 days. The medium in each well was replaced with fresh DMEM/F-12 medium containing the same supplements as above and the Phe-Hyp dipeptide (at a final concentration of 500 μM) and insulin (at a final concentration of 0.1 μg/mL), and the cells were cultured for 3 days. As a positive control, 10 μg/mL insulin was used. At end of culture, total RNA extraction and cDNA synthesis were performed, the relative mRNA expression levels of cartilage differentiation-related genes were quantified by real-time PCR and were normalized to the GAPDH mRNA expression level, and the results were evaluated. […]
# [2] = system: has2 mRNA in ATDC5; assay: Cartilage differentiation-related gene expression in chondrogenic cells: has2 (Test Example 7); assay type: cell-based, mouse; settings: 500 μM, insulin 0.1 μg/mL, 3 days, normalized to GAPDH, FIG. 23
# Protocol: as §1
# [3] = system: Col X mRNA in ATDC5; assay: Cartilage differentiation-related gene expression in chondrogenic cells: Col X (Test Example 7); assay type: cell-based, mouse; settings: 500 μM, insulin 0.1 μg/mL, 3 days, normalized to GAPDH, FIG. 22
# Protocol: as §1
# [4] = system: mouse chondrogenic cell line ATDC5; assay: Cartilage matrix production by chondrogenic cells, Alcian blue (Test Example 6); assay type: cell-based; settings: 500 μM, insulin 0.1 μg/mL, 14 days, FIG. 19
# Protocol: The mouse chondrogenic cell line ATDC5 (RIKEN BRC No. RCB0565) was cultured until subconfluence at 37° C. in an atmosphere of 5 vol % CO2 and 95 vol % air in DMEM/F-12 medium supplemented with 5% (w/w) FBS, 1% (w/w) penicillin-streptomycin solution, 5 μg/mL transferrin, and 3×10^−8M sodium selenite. The cells were collected by trypsin treatment. The collected cells were suspended in fresh DMEM/F-12 medium with the same supplements as above to give a cell suspension (50×10^4 cells/mL). The cell suspension was spot-seeded at a volume of 20 μL in each well of a 24-well plate, and the cells were precultured at 37° C. in an atmosphere of 5 vol % CO2 and 95 vol % air for 3 hours. The medium in each well was replaced with fresh DMEM/F-12 medium containing the same supplements as above and the Phe-Hyp dipeptide (at a final concentration of 500 μM) and insulin (at a final concentration of 0.1 μg/mL), and the cells were cultured for 14 days. The cartilage matrix produced by the chondrogenic cells was stained with Alcian blue staining solution, the stained cartilage matrix was quantified with Image J (National Institutes of Health), and the results were evaluated. The amount of the cartilage matrix produced by the chondrogenic cells in the sample addition group was expressed in terms of a relative value, with the amount of the cartilage matrix in the no sample group taken as 100.
# [5] = system: ex vivo mouse knee joints; assay: Ex vivo hyaluronic acid production in knee joints of mice (Test Example 8); settings: 1 mg/mL, one day incubation, ELISA, FIG. 24
# Protocol: DMEM/F-12 medium supplemented with 1 mg/mL Phe-Hyp dipeptide, 5% (w/w) FBS, 1% (w/w) penicillin-streptomycin solution, 5 μg/mL transferrin, and 3×10^−8 M sodium selenite was added to each well of a 24-well plate at a volume of 1 mL per well. The femur and tibia were harvested from the right and left hind legs of ddY mice (female, retired). The synovial membrane was incised to expose the cartilage, and the bones were placed in each well so that only the joint was immersed in the medium. The bones were incubated at 37° C. in an atmosphere of 5 vol % CO2 and 95 vol % air for one day. At end of incubation, the supernatants were recovered and centrifuged at 1500×g at 4° C. for 30 minutes. The supernatants were recovered, the amount of hyaluronic acid was measured by ELISA and the results were evaluated. The amount of the hyaluronic acid in the sample addition group was expressed in terms of a relative value, with the amount of hyaluronic acid in the no sample group taken as 100.
# [6] = system: Acan mRNA in ATDC5; assay: Cartilage differentiation-related gene expression in chondrogenic cells: Acan (Test Example 7); assay type: cell-based, mouse; settings: 500 μM, insulin 0.1 μg/mL, 3 days, normalized to GAPDH, FIG. 21
# Protocol: as §1
smiles,measurement,setting,value
"N[C@@H](Cc1ccccc1)C(=O)N1CC(O)C[C@H]1C(=O)O (stereo partly drawn) [Phe-Hyp dipeptide, phenylalanyl-4-hydroxyproline]",SOX9 mRNA expression level,[1],enhanced the expression
same,has2 mRNA expression level,[2],enhanced the expression
same,Col X mRNA expression level,[3],enhanced the expression
same,cartilage matrix production by chondrogenic cells (Alcian blue),[4],promoted cartilage matrix production
same,amount of hyaluronic acid produced in ex vivo mouse knee joints,[5],promoted ex vivo hyaluronic acid production
same,Acan mRNA expression level,[6],enhanced the expression

# — patent US11179424B2, “Hyaluronic acid production promoting agent” (Pharma Foods International Co., Ltd., priority 2015, dated 2021)
